Measured values taken from patent US7700609B2, “Compositions useful as inhibitors of protein kinases” (Vertex Pharmaceuticals Incorporated, priority 2003, dated 2010).

Biological target: T1, Itk (Homo sapiens, UniProt Q08881)
T1 sequence (Q08881 1-620): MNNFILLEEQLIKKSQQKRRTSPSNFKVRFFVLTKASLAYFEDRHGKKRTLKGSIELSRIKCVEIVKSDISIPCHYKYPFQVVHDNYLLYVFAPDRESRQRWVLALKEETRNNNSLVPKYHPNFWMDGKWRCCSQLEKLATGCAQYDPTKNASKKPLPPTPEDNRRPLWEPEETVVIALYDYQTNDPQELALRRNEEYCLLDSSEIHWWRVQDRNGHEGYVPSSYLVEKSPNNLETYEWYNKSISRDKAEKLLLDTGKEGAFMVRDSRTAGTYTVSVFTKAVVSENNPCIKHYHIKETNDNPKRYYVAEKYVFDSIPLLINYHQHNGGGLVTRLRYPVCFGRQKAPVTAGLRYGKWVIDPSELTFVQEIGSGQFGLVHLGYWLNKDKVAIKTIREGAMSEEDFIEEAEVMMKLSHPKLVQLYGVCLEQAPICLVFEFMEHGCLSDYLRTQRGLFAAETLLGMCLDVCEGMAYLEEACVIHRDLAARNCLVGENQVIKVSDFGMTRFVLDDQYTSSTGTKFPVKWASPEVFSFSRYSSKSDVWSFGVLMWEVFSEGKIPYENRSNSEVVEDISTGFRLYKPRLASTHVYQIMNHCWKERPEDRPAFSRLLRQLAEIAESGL
Assay: Itk inhibition assay: spectrophotometric coupled enzyme (Method C)
Assay type: biochemical
Details: 100 μM ATP, read-out: Ki in the standard coupled enzyme assay (Method C)
Experimental: The compounds of the present invention were evaluated as inhibitors of human Itk kinase using either a radioactivity-based, spectrophotometric or alphascreen assay.
Compounds were screened for their ability to inhibit Itk using a standard coupled enzyme assay (Fox et al., Protein Sci., (1998) 7, 2249).
Assays were carried out in a mixture of 20 mM MOPS (pH 7.0), 10 mM MgCl2, 0.1% BSA, 1 mM DTT, 2.5 mM phosphoenolpyruvate, 300 μM NADH, 30 μg/ml pyruvate kinase and 10 μg/ml lactate dehydrogenase. Final substrate concentrations in the assay were 100 μM ATP (Sigma Chemicals) and 3 μM peptide (Biotinylated SAM68 Δ332-443). Assays were carried out at 25° C. and in the presence of 10 nM Itk.
An assay stock buffer solution was prepared containing all of the reagents listed above, with the exception of ATP and the test compound of interest. 60 μl of the stock solution was placed in a 96 well plate followed by addition of 2 μl of DMSO stock containing serial dilutions of the test compound (typically starting from a final concentration of 15 μM). The plate was preincubated for 10 minutes at 25° C. and the reaction initiated by addition of 5 μl of ATP. Initial reaction rates were determined with a Molecular Devices SpectraMax Plus plate reader over a 10 minute time course. IC50 and Ki data were calculated from non-linear regression analysis using the Prism software package (GraphPad Prism version 3.0cx for Macintosh, GraphPad Software, San Diego Calif., USA).

Row | Ki | Compound
1 | < 1000 nM | COCCNCCC(=O)Nc1cccc(Nc2ncc3ccc4sc(C(=O)N5CCOCC5)cc4c3n2)c1 [Compound V-76]
2 | < 1000 nM | CN1CCN(C(=O)c2cc3c(ccc4cnc(Nc5cccc(C(C)(C)C)c5)nc43)s2)CC1 [Compound V-56]
3 | < 1000 nM | O=C(c1ccc(Nc2ncc3ccc4sc(C(=O)N5CCNCC5)cc4c3n2)cc1)N1CCOCC1 [Compound V-120]
4 | < 1000 nM | CC(C)(C)OC(=O)NC1CCN(C(=O)c2cc3c(ccc4cnc(Nc5cccc(F)c5)nc43)s2)C1 (stereo not drawn) [Compound V-63]
5 | < 1000 nM | CS(=O)(=O)c1cccc(Nc2ncc3ccc4sc(C(=O)N5CCC(O)C5)cc4c3n2)c1 (stereo not drawn) [Compound V-156]
6 | < 1000 nM | CS(=O)(=O)c1cccc(Nc2ncc3ccc4sc(C(=O)N5CCCC5)cc4c3n2)c1 [Compound V-130]
7 | < 1000 nM | Cc1ccsc1-c1cccc(Nc2ncc3ccc4sc(C(=O)N5CCNCC5)cc4c3n2)c1 [Compound V-95]
8 | < 1000 nM | O=C(c1cc2c(ccc3cnc(Nc4cccc(F)c4)nc32)s1)N1CCOCC1 [Compound V-61]
9 | < 1000 nM | O=C(c1cc2c(ccc3cnc(NCCc4c[nH]cn4)nc32)s1)N1CCNCC1 [Compound V-178]
10 | < 1000 nM | CC(C)(C)c1cccc(Nc2ncc3ccc4sc(C(=O)NCC5CCNCC5)cc4c3n2)c1 [Compound V-107]
11 | < 1000 nM | CS(=O)(=O)c1cccc(Nc2ncc3ccc4sc(C(=O)N5CCC(N)C5)cc4c3n2)c1 (stereo not drawn) [Compound V-101]
12 | < 1000 nM | CC(=O)N1CCN(C(=O)c2cc3c(ccc4cnc(Nc5cccc(S(C)(=O)=O)c5)nc43)s2)CC1 [Compound V-147]
13 | < 1000 nM | CS(=O)(=O)c1cccc(Nc2ncc3ccc4sc(C(=O)N5CCCNCC5)cc4c3n2)c1 [Compound V-136]
14 | < 1000 nM | CS(=O)(=O)c1cccc(Nc2ncc3ccc4sc(C(=O)NCCN5CCNC5=O)cc4c3n2)c1 [Compound V-145]
15 | < 1000 nM | O=C(c1cc2c(ccc3cnc(NCCc4ccc(F)cc4)nc32)s1)N1CCNCC1 [Compound V-180]
16 | < 1000 nM | CN1CCN(c2cccc(Nc3ncc4ccc5sc(C(=O)N6CCNCC6)cc5c4n3)c2)CC1 [Compound V-114]
17 | < 1000 nM | O=C(c1cc2c(ccc3cnc(NCCc4ccccc4)nc32)s1)N1CCNCC1 [Compound V-125]
18 | < 1000 nM | CS(=O)(=O)c1cccc(Nc2ncc3ccc4sc(C(=O)N5CCC(C(N)=O)CC5)cc4c3n2)c1 [Compound V-144]
19 | < 1000 nM | CC(=O)N1CCC(CNC(=O)c2cc3c(ccc4cnc(Nc5cccc(C(C)(C)C)c5)nc43)s2)CC1 [Compound V-118]
20 | < 1000 nM | CC(C)(C)c1cccc(Nc2ncc3ccc4sc(C(=O)N5CCC(N)C5)cc4c3n2)c1 (stereo not drawn) [Compound V-72]
21 | < 1000 nM | CS(=O)(=O)c1cccc(Nc2ncc3ccc4sc(C(=O)NCc5ccccc5)cc4c3n2)c1 [Compound V-129]
22 | < 1000 nM | COCCNC(=O)c1cc2c(ccc3cnc(Nc4cccc(S(C)(=O)=O)c4)nc32)s1 [Compound V-134]
23 | < 1000 nM | CC(C)(C)c1cccc(Nc2ncc3ccc4sc(C(=O)N5CC[C@@H](N)C5)cc4c3n2)c1 [Compound V-111]
24 | < 1000 nM | O=C(c1cc2c(ccc3cnc(Nc4cccc(-c5ccccc5)c4)nc32)s1)N1CCNCC1 [Compound V-80]
25 | < 1000 nM | COC[C@H](C)NC(=O)c1cc2c(ccc3cnc(Nc4cccc(S(C)(=O)=O)c4)nc32)s1 [Compound V-153]
26 | < 1000 nM | COCCN(C)C(=O)c1cc2c(ccc3cnc(Nc4cccc(S(C)(=O)=O)c4)nc32)s1 [Compound V-139]

Row | Ki | Compound
27 | < 1000 nM | CC(=O)Nc1cccc(Nc2ncc3ccc4sc(C(=O)N5CCOCC5)cc4c3n2)c1 [Compound V-68]
28 | < 1000 nM | CS(=O)(=O)c1cccc(Nc2ncc3ccc4sc(C(=O)NCC5CCNC5)cc4c3n2)c1 (stereo not drawn) [Compound V-146]
29 | < 1000 nM | CC(C)Oc1cccc(Nc2ncc3ccc4sc(C(=O)N5CCC(N)C5)cc4c3n2)c1 (stereo not drawn) [Compound V-103]
30 | < 1000 nM | O=C(CCN1CCOCC1)Nc1cccc(Nc2ncc3ccc4sc(C(=O)N5CCOCC5)cc4c3n2)c1 [Compound V-69]
31 | < 1000 nM | CC(=O)NCCNC(=O)c1cc2c(ccc3cnc(Nc4cccc(S(C)(=O)=O)c4)nc32)s1 [Compound V-135]
32 | < 1000 nM | NS(=O)(=O)c1cccc(Nc2ncc3ccc4nc(C(=O)N5CCNCC5)sc4c3n2)c1 [Compound V-177]
33 | < 1000 nM | O=C(c1cc2c(ccc3cnc(Nc4cccc(Br)c4)nc32)s1)N1CCNCC1 [Compound V-89]
34 | < 1000 nM | CC(C)(C)OC(=O)NC1CCN(C(=O)c2cc3c(ccc4cnc(Nc5cccc(-c6ccccc6)c5)nc43)s2)C1 (stereo not drawn) [Compound V-60]
35 | < 1000 nM | CC1CN(C(=O)c2cc3c(ccc4cnc(Nc5cccc(S(C)(=O)=O)c5)nc43)s2)CC(C)N1 (stereo not drawn) [Compound V-137]
36 | < 1000 nM | CC(C)Oc1cccc(Nc2ncc3ccc4sc(C(=O)N5CCNCC5)cc4c3n2)c1 [Compound V-102]
37 | < 1000 nM | NC1CCN(C(=O)c2cc3c(ccc4cnc(Nc5cccc(Oc6ccccc6)c5)nc43)s2)C1 (stereo not drawn) [Compound V-85]
38 | < 1000 nM | O=C(c1cc2c(ccc3cnc(Nc4cccc(-c5ccccc5)c4)nc32)s1)N1CCOCC1 [Compound V-58]
39 | < 1000 nM | Cc1cscc1-c1cccc(Nc2ncc3ccc4sc(C(=O)N5CCNCC5)cc4c3n2)c1 [Compound V-96]
40 | < 1000 nM | O=C(c1cc2c(ccc3cnc(NCCc4ccc(O)cc4)nc32)s1)N1CCNCC1 [Compound V-182]
41 | < 1000 nM | O=C(c1cc2c(ccc3cnc(Nc4cccc(Cc5ccccc5)c4)nc32)s1)N1CCNCC1 [Compound V-87]
42 | < 1000 nM | COC[C@H]1CCCN1C(=O)c1cc2c(ccc3cnc(Nc4cccc(S(C)(=O)=O)c4)nc32)s1 [Compound V-155]
43 | < 1000 nM | CC(C)(C)c1cccc(Nc2ncc3ccc4sc(C(=O)N5CCOCC5)cc4c3n2)c1 [Compound V-55]
44 | < 1000 nM | CCN(CCN(C)C)C(=O)c1cc2c(ccc3cnc(Nc4cccc(S(C)(=O)=O)c4)nc32)s1 [Compound V-157]
45 | < 1000 nM | CN1CCN(C(=O)c2cc3c(ccc4cnc(Nc5cccc(Cc6ccccc6)c5)nc43)s2)CC1 [Compound V-86]
46 | < 1000 nM | CC(=O)N1CCCN(C(=O)c2cc3c(ccc4cnc(Nc5cccc(S(C)(=O)=O)c5)nc43)s2)CC1 [Compound V-138]
47 | < 1000 nM | O=C(c1cc2c(ccc3cnc(Nc4cccc(-c5ccsc5Cl)c4)nc32)s1)N1CCNCC1 [Compound V-97]
48 | < 1000 nM | CN1CCN(C(=O)c2cc3c(ccc4cnc(Nc5cccc(-c6ccccc6)c5)nc43)s2)CC1 [Compound V-59]
49 | < 1000 nM | Cc1ccccc1-c1cccc(Nc2ncc3ccc4sc(C(=O)N5CCNCC5)cc4c3n2)c1 [Compound V-90]
50 | < 1000 nM | CS(=O)(=O)c1cccc(Nc2ncc3ccc4sc(C(=O)NC5(CO)CCCC5)cc4c3n2)c1 [Compound V-132]
51 | < 1000 nM | CC(C)(C)c1cccc(Nc2ncc3ccc4sc(C(=O)N5CC[C@H](N)C5)cc4c3n2)c1 [Compound V-110]
